Results: ChEMBL document CHEMBL1201862, “PubChem BioAssay data set” (2004)
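48-hour exposure; five concentrations; linearly interpolated endpoints. Abbreviation: GI50, concentration required for 50% inhibition of growth.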 Calls of active or inactive are those of the source. Cut-off read from the data, not from the text of the source: active = GI50 up to about 1.1 µM and inactive = higher.

Tests used:
Assay in all cases: inhibition of tumour cell growth, NCI panel, 48 h
[1] = system: 786-0
[2] = system: COLO 205
[3] = system: HOP-62
[4] = system: HT-29
[5] = system: KM12
[6] = system: LOX IMVI
[7] = system: MCF7
[8] = system: MDA-N
[9] = system: NCI-H23
[10] = system: OVCAR-4
[11] = system: SF-268
[12] = system: SK-OV-3
[13] = system: SN12C
[14] = system: SNB-75
[15] = system: TK-10
[16] = system: UACC-62
[17] = system: UO-31
[18] = system: A498
[19] = system: CAKI-1
[20] = system: RXF 393

Row | SMILES | GI50 [1] | GI50 [2] | GI50 [3] | GI50 [4] | GI50 [5] | GI50 [6] | GI50 [7] | GI50 [8] | GI50 [9] | GI50 [10] | GI50 [11] | GI50 [12] | GI50 [13] | GI50 [14] | GI50 [15] | GI50 [16] | GI50 [17] | GI50 [18] | GI50 [19] | GI50 [20]
1 | Cc1cnc2sn(-c3ccc(Oc4ccccc4)cc3)c(=O)c2c1 | 10.7 µM (inactive) | 20.5 µM (inactive) | 12.9 µM (inactive) | 18.2 µM (inactive) | 13.4 µM (inactive) | 6.1 µM (inactive) | 22.4 µM (inactive) | 16.6 µM (inactive) | 25.4 µM (inactive) | 17.9 µM (inactive) | 11.8 µM (inactive) | 25.8 µM (inactive) | 17.9 µM (inactive) | 17.9 µM (inactive) | 17.7 µM (inactive) | 10.3 µM (inactive) | 19.5 µM (inactive) |  |  | 
2 | O=c1[nH]c(=O)n(CCOc2ccccc2)cc1Nc1ccccc1 | 61.2 µM (inactive) | > 100 µM (inactive) | 22.3 µM (inactive) | > 100 µM (inactive) | > 100 µM (inactive) | > 100 µM (inactive) | > 100 µM (inactive) | > 100 µM (inactive) | > 100 µM (inactive) |  | 43.3 µM (inactive) |  | > 100 µM (inactive) |  |  | > 100 µM (inactive) | > 100 µM (inactive) | > 100 µM (inactive) | > 100 µM (inactive) | 37.3 µM (inactive)
3 | c1ccc(CCCCNCc2cc(CNCCCCc3ccccc3)cc(CNCCCCc3ccccc3)c2)cc1 | 1.31 µM (inactive) | 0.366 µM (active) | 1.75 µM (inactive) | 1.02 µM (active) | 0.544 µM (active) | 0.308 µM (active) | 0.178 µM (active) | 2.36 µM (inactive) | 1.28 µM (inactive) | 1.85 µM (inactive) | 1.53 µM (inactive) | 1.97 µM (inactive) | 3.63 µM (inactive) | 1.66 µM (inactive) | 1.82 µM (inactive) | 1.76 µM (inactive) | 0.261 µM (active) |  | 1.86 µM (inactive) | 1.31 µM (inactive)
4 | Cc1cnc2[nH]c(-c3ccccc3)cc(=O)c2c1 | 0.043 µM (active) | 0.0193 µM (active) | 1.21 µM (inactive) | 0.0101 µM (active) | 0.0138 µM (active) | 0.0351 µM (active) | 0.164 µM (active) | < 0.01 µM (active) | 0.0741 µM (active) | 1.35 µM (inactive) | 0.0697 µM (active) | 0.0284 µM (active) | 0.0527 µM (active) | 0.0122 µM (active) | 0.151 µM (active) | < 0.0132 µM (active) | 0.0528 µM (active) |  | < 0.0186 µM (active) | 0.0154 µM (active)
5 | COC(=O)[C@@H]1[C@H](O)[C@H](C)[C@H](O)[C@H](C)/C=C\C=C(\C)C(=O)Nc2c(C)c(OC(C)=O)c3c(c2O)C(=O)C(C)=C2OCOC(=C23)/C(C)=C/[C@@H](O)[C@H](O)[C@@H](C)[C@H]1OC(C)=O | > 100 µM (inactive) |  | > 100 µM (inactive) | 31.3 µM (inactive) | 95.3 µM (inactive) | 40 µM (inactive) | 26.2 µM (inactive) | 22.2 µM (inactive) | > 100 µM (inactive) | 33.2 µM (inactive) | 78.2 µM (inactive) |  | 36.8 µM (inactive) | > 100 µM (inactive) |  |  | 38.5 µM (inactive) |  |  | > 100 µM (inactive)
6 | CC1=NNC(=O)C1C1CC(c2c[nH]c3ccccc23)=NN(c2ccccc2)C1=O (centres undefined) | 24.6 µM (inactive) | > 100 µM (inactive) | > 100 µM (inactive) | > 100 µM (inactive) | > 100 µM (inactive) | 27.6 µM (inactive) |  | 59.2 µM (inactive) | > 100 µM (inactive) |  | > 100 µM (inactive) | > 100 µM (inactive) | 50.5 µM (inactive) | > 100 µM (inactive) | > 100 µM (inactive) | > 100 µM (inactive) | > 100 µM (inactive) | > 100 µM (inactive) | > 100 µM (inactive) | > 100 µM (inactive)
7 | CC(C)CCC[C@@H](C)[C@H]1CCC2C3CC=C4C[C@@H](Oc5c6ccccc6nc6ccccc56)CCC4C3CCC21 (some centres undefined) | > 50 µM (inactive) | > 50 µM (inactive) | > 50 µM (inactive) | > 50 µM (inactive) | > 50 µM (inactive) | > 50 µM (inactive) |  | > 50 µM (inactive) | > 50 µM (inactive) | > 50 µM (inactive) | > 50 µM (inactive) | > 50 µM (inactive) | > 50 µM (inactive) |  | > 50 µM (inactive) | > 50 µM (inactive) | 25.6 µM (inactive) |  | > 50 µM (inactive) | > 50 µM (inactive)
8 | O=C(NNCc1ccc(Cl)cc1)Nc1cccc2ccccc12 | 51.6 µM (inactive) | > 100 µM (inactive) | 48.2 µM (inactive) | > 100 µM (inactive) | 68.4 µM (inactive) | > 100 µM (inactive) | 26.8 µM (inactive) | > 100 µM (inactive) | > 100 µM (inactive) | > 100 µM (inactive) | 93.1 µM (inactive) |  | > 100 µM (inactive) | > 100 µM (inactive) | > 100 µM (inactive) | 90.4 µM (inactive) | 84.1 µM (inactive) |  | 42.7 µM (inactive) | > 100 µM (inactive)
9 | COC[C@@H](/N=C/c1ccc(OC)cc1)C(C)C | > 100 µM (inactive) | 80.4 µM (inactive) | > 100 µM (inactive) | > 100 µM (inactive) | > 100 µM (inactive) | > 100 µM (inactive) | > 100 µM (inactive) | > 100 µM (inactive) | > 100 µM (inactive) | > 100 µM (inactive) | > 100 µM (inactive) | > 100 µM (inactive) | > 100 µM (inactive) | > 100 µM (inactive) | > 100 µM (inactive) | > 100 µM (inactive) | > 100 µM (inactive) |  | > 100 µM (inactive) | > 100 µM (inactive)
10 | Cc1ccc(-c2cc(N)n(-c3nc4c([nH]3)c(=O)n(C)c(=O)n4C)n2)cc1 | 2.08 µM (inactive) | 3.62 µM (inactive) | 3.28 µM (inactive) | 4.53 µM (inactive) | 4.88 µM (inactive) |  | 6.78 µM (inactive) | 5.98 µM (inactive) | 8.95 µM (inactive) | 4.01 µM (inactive) | 3.59 µM (inactive) | 3.3 µM (inactive) | 5.32 µM (inactive) |  | 9.84 µM (inactive) | 5.37 µM (inactive) | 2.78 µM (inactive) | 4.86 µM (inactive) | 0.778 µM (active) | 17.6 µM (inactive)
11 | Cl/C(=C\C=N\c1ccc(I)cc1)c1ccc2ccccc2c1 | 17.6 µM (inactive) | 16.3 µM (inactive) | 17.7 µM (inactive) | 40.5 µM (inactive) | 13.1 µM (inactive) | 8.53 µM (inactive) | 23.2 µM (inactive) |  | 16 µM (inactive) | 24.5 µM (inactive) | 20.7 µM (inactive) | 22.5 µM (inactive) | 17.9 µM (inactive) | 28.4 µM (inactive) | 16.4 µM (inactive) | 8.83 µM (inactive) | 17.5 µM (inactive) | 47.6 µM (inactive) | 11.9 µM (inactive) | 22.2 µM (inactive)
